Source: patent US7863300B2, “Process to prepare pioglitazone via several novel intermediates” (Cadila Healthcare Limited, priority 2002, dated 2011)

melting point: 83 °C
SMILES: CCc1ccc(C(O)COc2ccc(C=O)cc2)nc1 (stereo not shown) [Compound 9a, 4-[2-(5-Ethyl-pyridin-2-yl)-2-hydroxy-ethoxy]-benzaldehyde]
